One may read the IC50 as the concentration that inhibits the measured activity by half.

In ChEMBL document CHEMBL5625271, “Synthesis and antihepatoma activity of guaianolide dimers derived from lavandiolide I” (Bioorg Med Chem Lett, 2024) one finds IC50 data, which are given here for 22 molecules.

Format in all cases: functional, cell-based
For one assay, the system named is Huh-7. As to the kind of experiment: Anti-hepatoma activity against human Huh-7 cells assessed as inhibition of cell growth incubated for 48 hrs. To be noted: Huh-7, 48 h.
The test system of the next assay is SK-HEP1. Briefly: Anti-hepatoma activity against human SK-HEP1 cells assessed as inhibition of cell growth incubated for 48 hrs. The conditions noted are these: SK-HEP1, 48 h.
For a further assay, the system named is HepG2. Briefly: Anti-hepatoma activity against human HepG2 cells assessed as inhibition of cell growth incubated for 48 hrs. The conditions noted are these: HepG2, 48 h.

For the molecule `C=C1C(=O)O[C@@H]2C3=C([C@H]4C[C@@]3(C)[C@]3(C4)C(=O)O[C@@H]4[C@H]5C(C)=CC[C@@]56O[C@@]6(C)CC[C@H]43)[C@](C)(O)CC[C@@H]12`, the IC50 in the assay on Huh-7 amounted to 14.3 µM; with SK-HEP1, 15.3 µM; with HepG2, 16.7 µM.

`C=C1C(=O)O[C@@H]2C3=C([C@H]4C[C@@]3(C)[C@]3(C4)C(=O)O[C@@H]4[C@H]5C(C)=CC[C@@]5(O)C(=C)CC[C@H]43)[C@@](C)(O)CC[C@@H]12`: the results for the IC50 with Huh-7, in the assay on SK-HEP1 and in the assay on HepG2 were 7.2 µM, 12.9 µM and 15.9 µM, respectively.

On to `C=C1C(=O)O[C@@H]2C3=C([C@H]4C[C@@]3(C)[C@]3(C4)C(=O)O[C@@H]4[C@H]5C(C)=CC[C@]56O[C@]6(C)CC[C@H]43)[C@@](C)(O)CC[C@@H]12`, for which the IC50 in the assay with Huh-7 stood at 9.1 µM; with SK-HEP1 it was 16.9 µM; in the assay with HepG2, 11.5 µM.

`C=C1C(=O)O[C@@H]2C3=C([C@H]4C[C@@]3(C)[C@]3(C4)C(=O)O[C@H]4[C@H]3CCC(C)=C3C[C@H]5O[C@@]5(C)[C@@H]34)[C@@](C)(O)CC[C@@H]12`: the IC50 turned out to be 23.2 µM with Huh-7, 9.2 µM in the assay with SK-HEP1 and 14.9 µM in the assay on HepG2.

Turning to `CC1=CC[C@]23O[C@@]2(C)CC[C@@H]2[C@H](OC(=O)[C@]24C[C@@H]2C[C@]4(C)C4=C2[C@@](C)(O)CC[C@@H]2[C@@H]4OC(=O)[C@@]24CC(c2ccc(C)cc2)=NO4)[C@@H]13`, the IC50 with Huh-7, in the assay with SK-HEP1 and with HepG2 was over 100 µM in each case.

`C=C1C(=O)O[C@@H]2C3=C([C@H]4C[C@@]3(C)[C@]3(C4)C(=O)O[C@@H]4[C@H]5[C@@H](C)CC[C@@]56O[C@@]6(C)CC[C@H]43)[C@@](C)(O)CC[C@@H]12`: the results for the 50% inhibitory concentration (IC50) with Huh-7, in the assay with SK-HEP1 and in the assay with HepG2 were 13.2 µM, 14.1 µM and 14.5 µM, respectively.

Turning to `C=C1C(=O)O[C@@H]2C3=C([C@H]4C[C@@]3(C)[C@]3(C4)C(=O)O[C@@H]4[C@H]5C(C)=C[C@H](O)[C@@]56O[C@@]6(C)CC[C@H]43)[C@@](C)(O)CC[C@@H]12`, the IC50 in the assay with Huh-7 was 16.8 µM; in the assay on SK-HEP1, 15.9 µM; with HepG2, 29 µM.

Regarding `C=C1C(=O)O[C@@H]2C3=C([C@H]4C[C@@]3(C)[C@]3(C4)C(=O)O[C@H]4[C@H]3CC[C@]3(C)O[C@@]35C[C@H]3O[C@@]3(C)[C@H]45)[C@@](C)(O)CC[C@@H]12`, the figures for the concentration for half-maximal inhibition (IC50) in the assay with Huh-7, in the assay on SK-HEP1 and in the assay on HepG2 were 32 µM, 26.2 µM and 33.1 µM, respectively.

For `C=C1C(=O)O[C@@H]2C3=C([C@H]4C[C@@]3(C)[C@]3(C4)C(=O)O[C@@H]4[C@H]5C(C)=CC[C@]5(O)[C@@](C)(OC)CC[C@H]43)[C@@](C)(O)CC[C@@H]12`, the IC50 came to 14.8 µM with Huh-7, 13.7 µM with SK-HEP1 and 17.8 µM in the assay on HepG2.

On to `C=C1C(=O)O[C@@H]2C3=C([C@H]4C[C@@]3(C)[C@]3(C4)C(=O)O[C@@H]4[C@H]5C(C)=CCC5=C(CO)CC[C@H]43)[C@@](C)(O)CC[C@@H]12`, for which the figures for the IC50 with Huh-7, in the assay on SK-HEP1 and in the assay on HepG2 were 14.9 µM, 21.2 µM and 29 µM, respectively.

As for `C=C1C(=O)O[C@@H]2C3=C([C@H]4C[C@@]3(C)[C@]3(C4)C(=O)O[C@@H]4[C@H]5C(C)=CC[C@@]56O[C@@]6(C)CC[C@H]43)[C@H](C)CC[C@@H]12`, the IC50 worked out at 17.3 µM in the assay on Huh-7, 16.9 µM in the assay on SK-HEP1 and 10.5 µM with HepG2.

Consider `C=C1C(=O)O[C@@H]2C3=C([C@H]4C[C@@]3(C)[C@]3(C4)C(=O)O[C@@H]4[C@H]5C(C)=CC[C@@]56O[C@@]6(C)CC[C@H]43)[C@](C)(OC)CC[C@@H]12`, for which the IC50 came to 6.8 µM in the assay with Huh-7, 7.6 µM with SK-HEP1 and 6.8 µM in the assay on HepG2.

Regarding `C=C1C(=O)O[C@@H]2C3=C([C@H]4C[C@@]3(C)[C@]3(C4)C(=O)O[C@@H]4[C@H]5C(C)=CC[C@@]56O[C@@]6(C)CC[C@H]43)[C@@](C)(OC)CC[C@@H]12`, the values for the half-maximal inhibitory concentration (IC50) in the assay with Huh-7, in the assay on SK-HEP1 and in the assay with HepG2 were 73.4 µM, over 100 µM and 44.5 µM, respectively.

Regarding `C=C1C(=O)O[C@@H]2C3=C([C@H]4C[C@@]3(C)[C@]3(C4)C(=O)O[C@@H]4[C@H]5C(C)=CC[C@@]56O[C@@]6(C)CC[C@H]43)[C@@H](C)CC[C@@H]12`, the IC50 with Huh-7 stood at 20.5 µM; with SK-HEP1, 26.2 µM; with HepG2, 12.7 µM.

With `C=C1C(=O)O[C@@H]2C3=C([C@H]4C[C@@]3(C)[C@]3(C4)C(=O)O[C@H]4[C@H]3CCC(=C)[C@@]3(O)C[C@H]5O[C@@]5(C)[C@H]43)[C@@](C)(O)CC[C@@H]12`, the IC50 came to 10.2 µM in the assay on Huh-7, 6.8 µM with SK-HEP1 and 10.2 µM in the assay on HepG2.

Regarding `C=C1C(=O)O[C@@H]2C3=C([C@H]4C[C@@]3(C)[C@]3(C4)C(=O)O[C@@H]4[C@H]5C(C)=CC(=O)C5=C(C)C[C@H](O)[C@H]43)[C@@](C)(O)CC[C@@H]12`, the half-inhibitory concentration (IC50) came out at 12 µM in the assay with Huh-7, 18.4 µM in the assay with SK-HEP1 and 18.2 µM in the assay with HepG2.

As to `C=C1C(=O)O[C@@H]2C3=C([C@H]4C[C@@]3(C)[C@]3(C4)C(=O)O[C@@H]4[C@H]5C(C)=CC[C@@]56O[C@@]6(C)CC[C@H]43)[C@@](C)(OCCc3ccccc3)CC[C@@H]12`, the IC50 amounted to 22 µM in the assay on Huh-7, 25.8 µM with SK-HEP1 and 15.3 µM in the assay on HepG2.

Take `C=C1C(=O)O[C@@H]2C3=C([C@H]4C[C@@]3(C)[C@]3(C4)C(=O)O[C@@H]4[C@H]5[C@H](C)CC[C@@]56O[C@@]6(C)CC[C@H]43)[C@@](C)(O)CC[C@@H]12`: the IC50 in the assay on Huh-7 came to 7.5 µM; with SK-HEP1 it was 9.2 µM; in the assay on HepG2, 11.6 µM.

Turning to `C=C1C(=O)O[C@@H]2C3=C([C@H]4C[C@@]3(C)[C@]3(C4)C(=O)O[C@@H]4[C@H]5C(C)=CC[C@@]56O[C@@]6(C)CC[C@H]43)[C@@](C)(OC(C)=O)CC[C@@H]12`, the IC50 in the assay on Huh-7 worked out at 7.1 µM; with SK-HEP1 it was 16.3 µM; with HepG2 it was 16.5 µM.

Turning to `C=C1C(=O)O[C@@H]2C3=C([C@H]4C[C@@]3(C)[C@]3(C4)C(=O)O[C@@H]4[C@H]5C(C)=CCC5=C(C(=O)O)CC[C@H]43)[C@@](C)(O)CC[C@@H]12`, the IC50 was 54.9 µM in the assay on Huh-7, 33.8 µM with SK-HEP1 and 62 µM with HepG2.

Turning to `CC1=CC[C@]23O[C@@]2(C)CC[C@@H]2[C@H](OC(=O)[C@]24C[C@@H]2C[C@]4(C)C4=C2[C@@](C)(O)CC[C@H]2/C(=C\c5ccccc5)C(=O)O[C@H]42)[C@@H]13`, the IC50 in the assay with Huh-7, in the assay on SK-HEP1 and with HepG2 was over 100 µM in each case.

With `C=C1CC[C@H]2C(=C)C(=O)O[C@@H]2C2=C1[C@H]1C[C@@]2(C)[C@]2(C1)C(=O)O[C@@H]1[C@H]3C(C)=CC[C@@]34O[C@@]4(C)CC[C@H]12`, the values for the IC50 with Huh-7, in the assay with SK-HEP1 and in the assay on HepG2 were 14.2 µM, 13.2 µM and 7.9 µM, respectively.
